# Test results from the supplement of paper PMC11451515.
# System: P12-Ichikawa
# Test: cell viability relative to DMSO control; higher = less cytotoxic
# Conditions: 48 h
# Outline: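 Library compounds in DMSO were pin-dosed into 1536-well plates (5 μl) holding NOMO1 or SEM (500 cells/well) or P12-Ichikawa (1000 cells/well) leukemia cells, across an 11-point threefold series of 47 μM to 0.79 nM. Each cell line had been adapted for at least four passages in each medium. CellTiter-Glo One luminescence was read after 48 h at 37°C. Viability is the per-plate percentage relative to DMSO wells, with cell-free wells as background.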
# [1] = HPLM + 10% dialyzed FBS, 0.000781 µM
# [2] = HPLM + 10% dialyzed FBS, 0.00234 µM
# [3] = HPLM + 10% dialyzed FBS, 0.00702 µM
# [4] = HPLM + 10% dialyzed FBS, 0.0211 µM
# [5] = HPLM + 10% dialyzed FBS, 0.0632 µM
# [6] = HPLM + 10% dialyzed FBS, 0.19 µM
# [7] = HPLM + 10% dialyzed FBS, 0.569 µM
# [8] = HPLM + 10% dialyzed FBS, 1.71 µM
# [9] = HPLM + 10% dialyzed FBS, 5.12 µM
# [10] = HPLM + 10% dialyzed FBS, 15.4 µM
# [11] = HPLM + 10% dialyzed FBS, 46.1 µM
# [12] = RPMI 5 mM glucose + 10% FBS, 0.000781 µM
# [13] = RPMI 5 mM glucose + 10% FBS, 0.00234 µM
# [14] = RPMI 5 mM glucose + 10% FBS, 0.00702 µM
# [15] = RPMI 5 mM glucose + 10% FBS, 0.0211 µM
# [16] = RPMI 5 mM glucose + 10% FBS, 0.0632 µM
# [17] = RPMI 5 mM glucose + 10% FBS, 0.19 µM
# [18] = RPMI 5 mM glucose + 10% FBS, 0.569 µM
# [19] = RPMI 5 mM glucose + 10% FBS, 1.71 µM
# [20] = RPMI 5 mM glucose + 10% FBS, 5.12 µM
# [21] = RPMI 5 mM glucose + 10% FBS, 15.4 µM
# [22] = RPMI 5 mM glucose + 10% FBS, 46.1 µM
# [23] = RPMI 5 mM glucose + 10% dialyzed FBS, 0.000781 µM
# [24] = RPMI 5 mM glucose + 10% dialyzed FBS, 0.00234 µM
# [25] = RPMI 5 mM glucose + 10% dialyzed FBS, 0.00702 µM
# [26] = RPMI 5 mM glucose + 10% dialyzed FBS, 0.0211 µM
# [27] = RPMI 5 mM glucose + 10% dialyzed FBS, 0.0632 µM
# [28] = RPMI 5 mM glucose + 10% dialyzed FBS, 0.19 µM
# [29] = RPMI 5 mM glucose + 10% dialyzed FBS, 0.569 µM
# [30] = RPMI 5 mM glucose + 10% dialyzed FBS, 1.71 µM
# [31] = RPMI 5 mM glucose + 10% dialyzed FBS, 5.12 µM
# [32] = RPMI 5 mM glucose + 10% dialyzed FBS, 15.4 µM
# [33] = RPMI 5 mM glucose + 10% dialyzed FBS, 46.1 µM
Structure (SMILES),cell viability [1] [%],cell viability [2] [%],cell viability [3] [%],cell viability [4] [%],cell viability [5] [%],cell viability [6] [%],cell viability [7] [%],cell viability [8] [%],cell viability [9] [%],cell viability [10] [%],cell viability [11] [%],cell viability [12] [%],cell viability [13] [%],cell viability [14] [%],cell viability [15] [%],cell viability [16] [%],cell viability [17] [%],cell viability [18] [%],cell viability [19] [%],cell viability [20] [%],cell viability [21] [%],cell viability [22] [%],cell viability [23] [%],cell viability [24] [%],cell viability [25] [%],cell viability [26] [%],cell viability [27] [%],cell viability [28] [%],cell viability [29] [%],cell viability [30] [%],cell viability [31] [%],cell viability [32] [%],cell viability [33] [%]
CC(C)(C)NC(=O)[C@@H]1CN(Cc2cccnc2)CCN1C[C@@H](O)C[C@@H](Cc1ccccc1)C(=O)N[C@H]1c2ccccc2C[C@H]1O.O=S(=O)(O)O,102,114,115,120,122,115,121,114,112,104,72.6,92.1,103,99.2,111,116,116,116,117,109,98,66.1,105,117,119,123,123,119,121,126,111,99.4,59.2
CN(C)CCN(Cc1ccc(Cl)cc1)c1ccccn1.Cl,89,97.1,95.9,97.1,96.9,94.9,97.5,101,95.2,96.4,101,80.3,80.4,85.4,95.1,80.5,87.9,90.4,87.7,90.4,85.2,82.4,83,82.3,84.4,87.9,84.2,79.2,82.4,80.3,83.3,78.8,73.2
COC1(C[S+]([O-])c2ccccc2)CCN(CCc2c[nH]c3ccc(F)cc23)CC1 (stereo not given),112,105,112,114,113,115,109,96.6,102,99.6,93.2,117,116,133,148,140,99.9,78.9,78.7,115,106,97.6,104,111,114,116,109,105,103,98.4,105,99.9,85.4
C#Cc1cccc(Nc2ncnc3cc(OC)c(OCCCCCCC(=O)NO)cc23)c1,126,118,121,124,105,69.2,29.8,8.83,6.65,6.4,2.39,,,,,,,,,,,,,,,,,,,,,,
